Results on eight compounds are retold here after patent publication US7875604B2, “Compounds that inhibit HIV particle formation” (University of Virginia Patent Foundation, priority 2004, dated 2011).

Where only a bound is given, the exact number is not on record here.

This data set deals with HIV-1 BR/93/021. As to the kind of experiment: Anti-HIV efficacy in fresh human PBMCs, reverse transcriptase readout, HIV-1 BR/93/021. Format: cell-based. Particulars: for TI (TC50/IC50): HIV-1 BR/93/021, PBMCs; for IC50: HIV-1 BR/93/021, fresh human PBMCs, seven days, RT activity. As to the method:
Compounds were evaluated for their ability to inhibit HIV replication in fresh human PBMCs. The assay was performed as follows.
Fresh human PBMCs, seronegative for HIV and HBV, were isolated from screened donors (Interstate Blood Bank, Inc. Memphis, Tenn.). Cells were pelleted/washed 2-3 times by low speed centrifugation and re-suspension in PBS to remove contaminating platelets. The Leukophoresed blood was then diluted 1:1 with Dulbecco's Phosphate Buffered Saline (DPBS) and layered over 14 mL of Lymphocyte Separation Medium (LSM; Cellgro® by Mediatech, Inc.; density 1.078+/−0.002 g/ml; Cat.#85-072-CL) in a 50 mL centrifuge tube and then centrifuged for 30 minutes at 600×g. Banded PBMCs were gently aspirated from the resulting interface and subsequently washed 2× with PBS by low speed centrifugation. After the final wash, cells were enumerated by trypan blue exclusion and re-suspended at 1×10^7 cells/mL in RPMI 1640 supplemented with 15% Fetal Bovine Serum (FBS), and 2 mM L-glutamine, 4 μg/mL Phytohemagglutinin (PHA-P, Sigma). The cells were allowed to incubate for 48-72 hours at 37° C. After incubation, PBMCs were centrifuged and resuspended in RPMI 1640 with 15% FBS, 2 mM L-glutamine, 100 U/mL penicillin, 100 μg/mL streptomycin, 10 μg/mL gentamycin, and 20 U/mL recombinant human IL-2 (R&D Systems, Inc). IL-2 is included in the culture medium to maintain the cell division initiated by the PHA mitogenic stimulation. PBMCs were maintained in this medium at a concentration of 1-2×10^6 cells/mL with biweekly medium changes until used in the assay protocol. Cells were kept in culture for a maximum of two weeks before being deemed too old for use in assays and discarded. Monocytes were depleted from the culture as the result of adherence to the tissue culture flask.
For the standard PBMC assay, PHA-P stimulated cells from at least two normal donors were pooled (mixed together), diluted in fresh medium to a final concentration of 1×10^6 cells/mL, and plated in the interior wells of a 96 well round bottom microplate at 50 μL/well (5×10^4 cells/well) in a standard format developed by the Infectious Disease Research department of Southern Research Institute. Pooling (mixing) of mononuclear cells from more than one donor is used to minimize the variability observed between individual donors, which results from quantitative and qualitative differences in HIV infection and overall response to the PHA and IL-2 of primary lymphocyte populations. Each plate contains virus/cell control wells (cells plus virus), experimental wells (drug plus cells plus virus) and compound control wells (drug plus media without cells, necessary for MTS monitoring of cytotoxicity). Since HIV-1 is not cytopathic to PBMCs, this allows the use of the same assay plate for both antiviral activity and cytotoxicity measurements. Test drug dilutions were prepared at a 2× concentration in microtiter tubes and 100 μL of each concentration was placed in appropriate wells using the standard format. 50 μL of a predetermined dilution of virus stock was placed in each test well (final MOI≅0.1). The PBMC cultures were maintained for seven days following infection at 37° C., 5% CO2. After this period, cell-free supernatant samples were collected for analysis of reverse transcriptase activity as a measure of virus release. Following removal of supernatant samples, compound cytotoxicity was measured by addition of MTS to the plates for determination of cell viability. Wells were also examined microscopically and any abnormalities were noted.
A microtiter plate-based reverse transcriptase (RT) reaction was utilized (Buckheit et al., AIDS Research and Human Retroviruses 7:295-302, 1991). Tritiated thymidine triphosphate (3H-TTP, 80 Ci/mmol, NEN) was received in 1:1 dH2O:Ethanol at 1 mCi/mL. […]

Setting [1] is: Human immunodeficiency virus 1, PBMC, 168 h.

One may read the IC50 as the concentration at which inhibition is half-maximal. Take “2-chloro-N-(4-methylphenyl)-4-(trifluoromethyl)-1,3-thazole-5-carboxamide [Compound 91161]”: the “TI (TC50/IC50)” value is 12.01 and the IC50 amounted to 1940 nM.

As for `CCc1c(C(=O)Nc2ccccc2)c(C)nc2sc(C(N)=O)c(N)c12` [Compound 75168, 3-amino-4-ethyl-6-methyl-N˜5˜-phenylthieno[2,3-b]pyridine-2,5-dicarboxamide], the “TI (TC50/IC50)” value was greater than 12.52. Besides, the 50% inhibitory concentration (IC50) under setting [1] was found to be 2140 nM.

Regarding `COc1ccc2cc3c(N)n[nH]c3nc2c1` [Compound 89246, 7-methoxy-1H-pyrazolo[3,4-b]quinolin-3-ylamine], the “TI (TC50/IC50)” value is reported as 69.57. Moreover, the IC50 under setting [1] worked out at 470 nM.

For the compound `CCc1c(C)nc2sc(C(N)=O)c(N)c2c1C` [Compound 103833, 3-amino-5-ethyl-4,6-dimethylthieno[2,3-b]pyridine-2-carboxamide], the “TI (TC50/IC50)” value is greater than 129.66. Under setting [1], this compound yielded an IC50 of 290 nM.

For the compound `COc1ccc2nc(C(F)(F)F)c(C#N)c(N)c2c1` [Compound 104366, 4-amino-6-methoxy-2-(trifluoromethyl)-3-quinolinecarbonitrile], the “TI (TC50/IC50)” value is reported as 38.91. Further, the half-maximal inhibitory concentration (IC50) under setting [1] was found to be 640 nM.

For `CS(=O)(=O)c1ncc(-c2ccc(Br)cc2)cn1` [Compound 107129, -(4-bromophenyl)-2-(methylsulfonyl)pyrimidine], the “TI (TC50/IC50)” value is given as 3.48. The compound further yielded an IC50 under setting [1] of 1800 nM.

In the case of `COc1cccc(NC(=O)c2cc(Cl)nnc2Cl)c1` [Compound 107740, 3,6-dichloro-N-(3-methoxyphenyl)-4-pyridazinecarboxamide], the “TI (TC50/IC50)” value is recorded as 94.00. Besides, the concentration for half-maximal inhibition (IC50) under setting [1] was 200 nM.

For `Fc1ccc(Nc2ncnc3ccccc23)cc1Cl` [Compound 109020, N-(3-chloro-4-fluorophenyl)-N-(4-quinazolinyl)amine], the “TI (TC50/IC50)” value is given as greater than 3.09. For the same compound, the IC50 under setting [1] was 13200 nM.
